Data reported in US10457709B2, “Antimicrobial peptides, their variants and uses” (priority 2015, dated 2019).
Square brackets hold non-standard residues; d marks the D form. Peptide text beside a SMILES is read from it.

Key:
Assay type in all cases: cell-based, Staphylococcus aureus
S. aureus COL (MRSA) = test system: S. aureus COL (MRSA)
Procedure: (§1) Minimum inhibition concentrations (MICs) were determined against Escherichia coli (ATCC 25922), Staphylococcus aureus (ATCC 25923), Klebsiella pneumoniae (ATCC 10031) and Pseudomonas aeruginosa (ATCC 27853). Also clinical strains of E. coli, K. pneumoniae, E. cloacae, P. aeruginosa, Serratia marcescens, Proteus mirabilis, S. pneumoniae, Acinetobacter baumannii, A. johnsonii and S. aureus were used for MICs assays. Additionally, clinical strains of yeast including Candida albicans, C. glabrata, C. parapsilosis and C. quillermondiae were used. The susceptibility of these microorganisms to Chain peptides were determined using micro broth dilution assay. Colonies of the respective microorganism from Muller Hinton (MH) agar plates incubated overnight were suspended in MH broth media and final concentration of microorganism was adjusted to 5.0×10^5 cfu/ml. An aliquot of 10 μl of each Chain peptide, or gentamicin, tetracycline as reference antibiotics were added in differing concentrations along with 90 μl of bacterial suspension to 96 well polypropylene plates and incubated at 37° C. for 20 to 24 hours. Concentrations of Chain peptides and reference antibiotics ranged from 0.125 to 128 μg/ml and the MICs were recorded as the lowest concentration with no visual growth of bacteria. Similarly, antifungal MICs were tested in Potato dextrose broth.
(§2) Peptides Chain 104, Chain 105, Chain 201, Chain 308, Chain 310 were tested against antibiotic-sensitive strains of S. aureus RN4220 and methicillin resistant strains of S. aureus COL (MRSA). Chain peptides comprising of either L- or D-form amino acids were tested against these bacteria, and the D-form peptides were found have better activity compared to L-form (Table 6). Synergistic activity of chain peptides along with Ertapenem (4 μg/ml) was tested to know whether it will influence the activity against MRSA strains. […] Chain 310 has the best antibacterial activity against the MRSA strains with a MIC of 0.06 & 0.03 μg/ml along with Ertapenem (4 μg/ml) for both forms of L and D-peptides (Table 6).

S. aureus RN4220 = conditions: antibiotic sensitive strain S. aureus RN4220
Procedure: as §1, §2

[1] = test system: MRSA strains (S. aureus COL); experiment: MIC, synergistic activity with Ertapenem (4 μg/ml); conditions: S. aureus COL, synergistic activity with 4 μg/ml Ertapenem
Procedure: as §1, §2

Structure (SMILES)	Minimum inhibitory concentration (MIC), S. aureus COL (MRSA) (S. aureus COL (MRSA)) [µg/mL]	Minimum inhibitory concentration (MIC), S. aureus RN4220 (S. aureus RN4220) [µg/mL]	Minimum inhibitory concentration (MIC), S. aureus COL + 4 μg/ml Ertapenem [1] [µg/mL]
CC[C@@H](C)[C@@H](NC(=O)[C@@H](CCSC)NC(=O)[C@@H](C)NC(=O)[C@@H](CCCNC(=N)N)NC(=O)[C@@H](Cc1c[nH]c2ccccc12)NC(=O)[C@@H](CCCCN)NC(=O)[C@H](N)CCCNC(=N)N)C(=O)N[C@H](CCCNC(=N)N)C(=O)N[C@H](CC(C)C)C(=O)N[C@H](Cc1c[nH]cn1)C(=O)N[C@H](C)C(=O)N[C@H](CCCCN)C(=O)N[C@H](CCCNC(=N)N)C(=O)N[C@H](CC(C)C)C(=O)N[C@H](CCCNC(=N)N)C(=O)N[C@H](CCCCN)C(=O)O [104 D] (H-[dR][dK][dW][dR][dA][dM][dI][dR][dL][dH][dA][dK][dR][dL][dR][dK]-OH)	32	64	4
CC[C@@H](C)[C@@H](NC(=O)[C@@H](CCSC)NC(=O)[C@@H](C)NC(=O)[C@@H](CCCNC(=N)N)NC(=O)[C@@H](Cc1c[nH]c2ccccc12)NC(=O)[C@@H](CCCCN)NC(=O)[C@H](N)CCCNC(=N)N)C(=O)N[C@H](CCCNC(=N)N)C(=O)N[C@H](CC(C)C)C(=O)N[C@H](Cc1c[nH]cn1)C(=O)N[C@H](C)C(=O)N[C@H](CCCCN)C(=O)N[C@H](Cc1c[nH]c2ccccc12)C(=O)N[C@H](CC(C)C)C(=O)N[C@H](CCCNC(=N)N)C(=O)N[C@H](CCCCN)C(=O)O [105 D] (H-[dR][dK][dW][dR][dA][dM][dI][dR][dL][dH][dA][dK][dW][dL][dR][dK]-OH)	8	16	2
CC[C@@H](C)[C@@H](NC(=O)[C@@H](Cc1c[nH]c2ccccc12)NC(=O)[C@H](N)CCCCN)C(=O)N[C@@H](C(=O)N[C@H](Cc1c[nH]c2ccccc12)C(=O)N[C@H](CCCNC(=N)N)C(=O)N[C@H](Cc1c[nH]c2ccccc12)C(=O)N[C@H](CCCNC(=N)N)C(=O)N[C@H](Cc1ccccc1)C(=O)N[C@H](CCCCN)C(=O)N[C@H](CCCNC(=N)N)C(=O)O)C(C)C [201 D] (H-[dK][dW][dI][dV][dW][dR][dW][dR][dF][dK][dR]-OH)	2	2	1
CC(C)C[C@@H](NC(=O)[C@H](N)CCCNC(=N)N)C(=O)N[C@H](CCCCN)C(=O)N[C@H](Cc1c[nH]c2ccccc12)C(=O)N[C@H](Cc1ccccc1)C(=O)N[C@H](CC(C)C)C(=O)N[C@H](CC(C)C)C(=O)N[C@H](Cc1ccccc1)C(=O)N[C@H](CCCNC(=N)N)C(=O)N[C@H](CCCCN)C(=O)N[C@H](CCCNC(=N)N)C(=O)O [308 D] (H-[dR][dL][dK][dW][dF][dL][dL][dF][dR][dK][dR]-OH)	4	4	1
